# Experimental data taken from US11161823B2, “Anticancer 1,3-dioxane-4,6-dione derivatives and method of combinatorial synthesis thereof” (National Guard Health Affairs, priority 2019, dated 2021).
# Where two headings read alike, the source gives them in different places.
# Columns and labels:
# MCF-7 (Breast) = assay: MTT cell proliferation assay, MCF-7; type: cell-based, human; details: read-out: IC50 μM MCF-7 (Breast)
# Experimental: (§1) Cell Culture: The human breast cancer epithelial cell lines MDA-MB-231 (HTB-26™), MCF-7 (HTB-22™), colon cancer cell lines HCT 116 (CCL-247™) and […] (CCL-244™) were obtained from American Type Culture Collection (ATCC). Additionally, KAIMRC1 cell line was isolated and developed at KAIMRC from a breast cancer patient. All the cells were grown in advanced DMEM containing 10% fetal bovine serum (FBS), 50 units/mL penicillin, 50 ug/mL streptomycin (GIBCO), and 2 mM glutamine (GIBCO). The cells were cultured at 37° C. in a humidified 5% CO2 atmosphere for 24 hours before experimental procedure.
# (§2) Cell Proliferation Assay (MTT): Cells were plated on flat-bottom 96-well plates at a density of 5×10^3 cells/well in 100 μL growth medium. Serial dilutions of the compounds, ranging from 100 nM-100 μM were tested on the cells in triplicates. Additional rows with only the compounds and only cells were added in order to account for the compounds and cells effect. Cells were incubated with compounds for 48 h at 37° C. with 5% CO2.
# (§3) After 48 h treatment, the cell viability was determined using the MTT viability assay. Briefly, 5 μL of MTT reagent (5 mg/mL stock) per 95 μl cell culture medium was added to each well and incubated for 3 h at 37° C. with 5% CO2. After 3 h the supernatant was removed, and the MTT formazan crystals were dissolved in dimethyl sulfoxide (DMSO) by shaking the plate for 30 mins at RT. The absorbance was measured on Molecular Devices microplate absorbance reader at 560 nm. The percentage of viable cells was calculated as the ratio of the absorbance of the treated group divided by the absorbance of the control group multiplied by 100. The absorbance from the untreated control cells was set as 100% viable. IC50 values were calculated from dose-response curves generated using a polynomial dose-response approximation using Prism 8 software. The IC50 values (µM) obtained for the compounds of present invention on MDA-MD 231 (breast), MCF-7 (breast), KAIMRC1 (breast), HCT116 (colon) and HCT8 (colon) are summarized in Table 5 and 6.
# HCT116 (Colon) = assay: MTT cell proliferation assay, HCT116; type: cell-based, human; details: read-out: IC50 μM HCT116 (Colon)
# Experimental: as §1, §2, §3
# [1] = system: MDA MB-231 cell line (Breast); assay: MTT cell proliferation assay, MDA MB-231; type: cell-based, human; details: read-out: IC50 μM MDA MB-231 (Breast)
# Experimental: as §1, §2, §3
# KAIMRC1 (Breast) = assay: MTT cell proliferation assay, KAIMRC1; type: cell-based, human; details: read-out: IC50 μM KAIMRC1 (Breast)
# Excerpt: The immortalized cell lines included in the testing panel of this disclosure are MCF7 (a breast cancer cell line), MCF10 (immortalized human breast epithelial cells), MDA-MB231 (an epithelial, human breast cancer cell line that was established from a pleural effusion of a patient with a metastatic mammary adenocarcinoma), KAIMRC1 (a naturally immortalized human breast carcinoma cell line), KAIMRC2 (a naturally immortalized breast cancer cell line). The primary cells available for lead toxicity assays are, without limitation: hepatocytes (supplied by Xenotech, Bioscience Lonza, Accegen, Biocompare, Gibco, Zen-Bio, Takarabio, AxolBio, Creative Bioarray), cardiomyocytes (supplied by Cellartis, Axolbio, Cedarlanelabs, EMD Millipore, Takara Bio, Neuromics, AcceGene), primary neurons (AcceGen, Cellapplications, Neuromics, Biocompare, AxolBio, BrainXcell), endothelial lining (Thermofisher, Accegen, Biocompare, Promocell, ATCC). Multicellular 3D organoids raised by differentiating iPSC (induced pluripotent stem cells) are provided by Sigma Aldrich (the iPSC cell lines, organoids), Tocris Bioscience, Thermofisher, Stemcell Technologies, Takara Bio, Emulatebio (Human organ chips), Prodolabs.
# as §1, §2, §3
# [2] = system: MDA-MD 231 (breast), MCF-7 (breast), KAIMRC1 (breast), HCT116 (colon) and HCT8 (colon); assay: MTT assay, review of Tables 5 and 6 (whole cell line panel); type: cell-based, human; details: review of Tables 5 and 6, MTT IC50
# Experimental: as §1, §2, §3
# The presence of nitrogen in certain positions of quinoline and/or iso-quinoline ring is the structure-activity determinant, and the subsequent variations in the nitrogen positions and substituents in this ring produce stronger leads by the methods of combinatorial expansion disclosed herein.
# HCT 8 (Colon) = assay: MTT cell proliferation assay, HCT 8; type: cell-based, human; details: read-out: IC50 μM HCT 8 (Colon)
# Experimental: as §1, §2, §3
# ThP1 (leukemia) = assay: Cell Titre Glo luminescent cell viability assay, ThP1; type: cell-based; details: Cell Titre Glo luminescence, normalized to DMSO controls
# Excerpt: (§4) Another embodiment discloses Titer Glo Assay for the characterization of the synthesized compounds. The CellTiter-Glo® Luminescent Cell Viability Assay is a homogeneous method of determining the number of viable cells in culture based on quantitation of the ATP present, an indicator of metabolically active cells. The CellTiter-Glo® Assay is designed for use with multiwell formats, making it ideal for automated high-throughput screening (HTS), cell proliferation, and cytotoxicity assays. The homogeneous assay procedure involves adding the single reagent (CellTiter-Glo® Reagent) directly to cells cultured in serum-supplemented medium. Cell washing, removal of medium, and multiple pipetting steps are not required. The system detects as few as 15 cells/well in a 384-well format in 10 minutes after adding reagent and mixing.
# as §1
# (§5) Cell Titre Glo assay was performed on two Leukemia cell lines, HL 60 and ThP1 as per manufacturer's (Promega) recommendations. Briefly, plates were prepared as mentioned in cell culture section. 100 µL of Cell Titre Glo was added directly to the wells. After incubation for 30 minutes at room temperature, luminescence was measured using the Envision plate reader (Perkin Elmer). Luminescence readings were normalized to averaged DMSO controls and expressed as relative percentage. IC50 values were calculated from dose-response curves generated using a polynomial dose-response approximation using Prism 8 software.
# HL 60 (leukemia) = assay: Cell Titre Glo luminescent cell viability assay, HL 60; type: cell-based; details: Cell Titre Glo luminescence, normalized to DMSO controls
# Excerpt: as §4, §1, §5
# [3] = Homo sapiens, MDA-MB-231, MTT, 48 h treatment, medium with 10% FBS
# [4] = Homo sapiens, MCF7, MTT, 48 h treatment, medium with 10% FBS
# [5] = Homo sapiens, HCT-8, MTT, 48 h treatment, medium with 10% FBS
# [6] = Homo sapiens, HCT-116, MTT, 48 h treatment, medium with 10% FBS
# [7] = Homo sapiens, MTT, 48 h treatment, medium with 10% FBS
# [8] = MTT, 48 h treatment, medium with 10% FBS
SMILES,"IC50 [1, 3] [µM]",IC50 (MCF-7 (Breast); [4]) [µM],IC50 (HCT 8 (Colon); [5]) [µM],IC50 (HCT116 (Colon); [6]) [µM],IC50 (KAIMRC1 (Breast); [7]) [µM],also measured
"O=C1NC(=O)C(=C/C=C/c2c3ccccc3cc3ccccc23)C(=O)N1 [Example 1, 5-(3-ANTHRACEN-9-YL-ALLYLIDENE)-PYRIMIDINE-2,4,6-TRIONE]",,,,,,"IC50 (MCF-7 (Breast); Homo sapiens, MCF7, 48 h): 10.5 µM; IC50 (HCT116 (Colon); Homo sapiens, HCT-116, 48 h): 27.1 µM; IC50 ([1]; Homo sapiens, MDA-MB-231, 48 h): 52 µM"
"CCC1(C)OC(=O)C(=C/C=C/c2c3ccccc3cc3ccccc23)C(=O)O1 (stereo not drawn) [Example 2, 5-(3-ANTHRACEN-9-YL-ALLYLIDENE)-2-ETHYL-2-METHYL-[1,3]DIOXANE-4,6-DIONE]",25.2,,,,,
"O=C1NC(=O)C(=C/C=C/c2ccnc3ccccc23)C(=O)N1 [Example 6, 5-(3-QUINOLIN-4-YL-ALLYLIDENE)-PYRIMIDINE-2,4,6-TRIONE]",,,,,,"IC50 (MCF-7 (Breast); Homo sapiens, MCF7, 48 h): 31.9 µM; IC50 (KAIMRC1 (Breast); Homo sapiens, 48 h): 18 µM; IC50 ([1]; Homo sapiens, MDA-MB-231, 48 h): 21.2 µM"
"CCC1(C)OC(=O)C(=C/C=C/c2ccncc2)C(=O)O1 (stereo not drawn) [Example 9, 2-ETHYL-2-METHYL-5-(3-PYRIDIN-4-YL-ALLYLIDENE)-[1,3]DIOXANE-4,6-DIONE]",5.03,24.2,2.17,3.54,21.6,"range of activity compared with Mitoxanthrone [2]: range of activity that begins to overlap with that of Mitoxanthrone; IC50 (ThP1 (leukemia); Homo sapiens, THP-1): 2.81 µM"
"CC1(C)OC(=O)C(=CC=Cc2cncc3ccccc23)C(=O)O1 [Example 10, 5-(3-ISOQUINOLIN-4-YL-ALLYLIDENE)-2,2-DIMETHYL-[1,3]DIOXANE-4,6-DIONE]",,,1.37,,4.45,"range of activity compared with Mitoxanthrone [2]: range of activity that begins to overlap with that of Mitoxanthrone; IC50 (ThP1 (leukemia); Homo sapiens, THP-1): 1.51 µM"
"CC1(C)OC(=O)C(=CC=Cc2ccnc3ccccc23)C(=O)O1 [Example 11, 2,2-DIMETHYL-5-(3-QUINOLIN-4-YL-ALLYLIDENE)-[1,3]DIOXANE-4,6-DIONE]",14.1,19.7,14.1,10.4,33.2,"IC50 (HL 60 (leukemia); Homo sapiens, HL-60): 1.86 µM; IC50 (ThP1 (leukemia); Homo sapiens, THP-1): 1.68 µM"
"CCCC1(C)OC(=O)C(=CC=Cc2ccnc3ccccc23)C(=O)O1 (stereo not drawn) [Example 14, 2-METHYL-2-PROPYL-5-(3-QUINOLIN-4-YL-ALLYLIDENE)-[1,3]DIOXANE-4,6-DIONE]",15.5,15.2,18.9,15.4,27.6,
"O=C1OC2(CCC2)OC(=O)C1=CC=Cc1ccnc2ccccc12 [Example 15, 7-(3-QUINOLIN-4-YL-ALLYLIDENE)-5,9-DIOXA-SPIRO[3.5]NONANE-6,8-DIONE]",7.84,,,,,
"O=C1OC2(CCC2)OC(=O)C1=CC=Cc1cncc2ccccc12 [Example 16, 7-(3-ISOQUINOLIN-4-YL-ALLYLIDENE)-5,9-DIOXA-SPIRO[3.5]NONANE-6,8-DIONE]",,5.44,6.01,8.04,8.09,
"O=C1OC2(CCCCC2)OC(=O)C1=CC=Cc1ccnc2ccccc12 [Example 17, 3-(3-QUINOLIN-4-YL-ALLYLIDENE)-1,5-DIOXA-SPIRO[5.5]UNDECANE-2,4-DIONE]",13,17.3,12.9,13.7,19.6,
"CC1(C)OC(=O)C(=CC=Cc2cccc3ccccc23)C(=O)O1 [Example 18, 2,2-DIMETHYL-5-(3-NAPHTHALEN-1-YL-ALLYLIDENE)-[1,3]DIOXANE-4,6-DIONE]",,,5.78,,6.54,
"CCC1(C)OC(=O)C(=CC=Cc2cccc3ccccc23)C(=O)O1 (stereo not drawn) [Example 19, 2 ETHYL,2-METHYL-5-(3-NAPHTHALEN-1-YL-ALLYLIDENE)-[1,3]DIOXANE-4,6-DIONE]",5.92,5.82,2.95,2.44,5.82,
"O=C1OC2(CCC2)OC(=O)C1=CC=Cc1cccc2ccccc12 [Example 20, 7-(3-NAPHTHALEN-1-YL-ALLYLIDENE)-5,9-DIOXA-SPIRO[3.5]NONANE-6,8-DIONE]",,4.24,3.87,4.84,11.9,"IC50 (HL 60 (leukemia); Homo sapiens, HL-60): 2.41 µM; IC50 (ThP1 (leukemia); Homo sapiens, THP-1): 2.04 µM"
"CCC1(C)OC(=O)C(=CC=Cc2ccc(OC)c3ccccc23)C(=O)O1 (stereo not drawn) [Example 21, 2-ETHYL-5-[3-(4-METHOXY-NAPHTHALEN-1-YL)-ALLYLIDENE]-2-METHYL-[1,3]DIOXANE-4,6-DIONE]",17,,,50,,
"CC1(C)OC(=O)C(=CC#Cc2cccc3ccccc23)C(=O)O1 [Example 28, 2,2-DIMETHYL-5-(3-NAPHTHALEN-1-YL-PROP-2-YNYLIDENE)-[1,3]DIOXANE-4,6-DIONE]",,,,,,"IC50 (HCT 8 (Colon); Homo sapiens, HCT-8, 48 h): 8.82 µM; IC50 (KAIMRC1 (Breast); Homo sapiens, 48 h): 7.36 µM"
"CC1(C)OC(=O)C(=CC=Cc2cccc3occc23)C(=O)O1 [Example 32, 5-(3-BENZOFURAN-4-YL-ALLYLIDENE)-2,2-DIMETHYL-[1,3]DIOXANE-4,6-DIONE]",7.5,,,34.2,,
"O=C1c2c(O)ccc(O)c2C(=O)c2c(NCCNCCO)ccc(NCCNCCO)c21 [Mitoxanthrone, reference compound]",,,,,,"IC50 (HL 60 (leukemia)): 0.7 µM; IC50 (MCF-7 (Breast); [8]): 3.61 µM; IC50 (HCT 8 (Colon); [8]): 1.25 µM; IC50 (ThP1 (leukemia)): 0.22 µM; IC50 (HCT116 (Colon); [8]): 0.71 µM; IC50 (KAIMRC1 (Breast); [8]): 10.1 µM; IC50 [1, 8]: 0.51 µM"
